The data set can be described thus: gradient 5% acetonitrile 3 min, to 50% in 2 min, to 85% in 15 min, held 3 min, 100 µL/min. As to conditions: column: Zorbax Extend-C18 2.1 x 50 mm; eluents: water / acetonitrile, 0.1% formic acid. An outline of the steps: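 Pure standards were run in mixtures of ~100 molecules by HPLC coupled to a quadrupole time-of-flight mass spectrometer. The column was a Zorbax Extend-C18 (2.1 × 50 mm, 1.8 μm) at 100 μL/min, with water and acetonitrile each containing 0.1% formic acid, in positive and negative ionization mode. Dead and dwell volumes were 40 μL and 900 μL. Retention time was taken from computationally picked adduct peaks, each manually inspected, with data collected over 3 months.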
The molecule `O=C(CC1CCCC1)N1CCCC(c2nc(-c3ccccc3)n[nH]2)C1` (centres undefined) came in with an RP-LC retention time of 801 s.

`Cn1c(C(=O)NCCCN2CCCC2=O)cc2c(=O)oc3ccccc3c21`: the RP-LC retention time was 668 s.

`COc1cccc(N2CCN(c3ccnc(SCC(=O)Nc4cc(Cl)ccc4OC)n3)CC2)c1`: the RP-LC retention time was 964 s.

The molecule `Cc1nc2cc(-c3noc(Cc4c(Cl)cccc4Cl)n3)ccc2o1` gave an RP-LC retention time of 1130 s.

`COc1ccc(Cl)cc1NC(=O)Cn1nc2cc(-c3ccccc3)nc(C)n2c1=O` gave an RP-LC retention time of 974 s.

As to `COc1ccc(C(=O)N2CCC3(CC2)NC(=O)c2ccc(F)cc2N3C)cc1`, the RP-LC retention time was found to be 740 s.

`Cc1nc(-c2ccnc(N3CCCC3)c2)no1`: the RP-LC retention time amounted to 572 s.

Take `O=C(Nc1ccc(F)cc1)C1CCCN(S(=O)(=O)c2c[nH]c(C(=O)N3CCCC3)c2)C1` (centres undefined): the RP-LC retention time turned out to be 787 s.

In the case of `Cc1ccc(C2(O)C(=O)N(CC(=O)Nc3ccc(F)cc3F)c3ccccc32)cc1` (centres undefined), the RP-LC retention time turned out to be 715 s.

Regarding `COc1ccc(OC)c(CNC(=O)CN2CCN(Cc3ccc(F)cc3)C2=O)c1`, the RP-LC retention time came out at 787 s.

`COC(=O)c1c(NCc2cccs2)c2cccc(Cl)c2[nH]c1=O`: the RP-LC retention time was 764 s.

`O=C(CCNc1c(-c2ccc(F)cc2)nc2cnccn12)Nc1ccc2c(c1)OCCO2` displayed an RP-LC retention time of 704 s.

With `CCOC(=O)c1c(C)oc2ncnc(NCCN3CCN(c4ccc(OC)cc4)CC3)c12`, the RP-LC retention time came to 716 s.

`C/C=C1/C(=O)C[C@H]2[C@@H]3CCC4=CC(=O)CC[C@]4(C)[C@H]3CC[C@]12C`: the RP-LC retention time came out at 1100 s.

Molecule `COc1cccc(CNC(=O)Cn2ccc3ccc(-c4nnc(C)o4)cc32)c1` yielded an RP-LC retention time of 756 s.

Take `Cc1cccc(-c2nc(C)c(CCNC(=O)C(=O)Nc3ccc([N+](=O)[O-])cc3)s2)c1`: the RP-LC retention time is 1020 s.

`CCC(C)NC(=O)C1c2cc(OC)c(OC)cc2C(=O)N(C)C1c1ccc(OC)c(OC)c1` (centres undefined): the RP-LC retention time is 710 s.

The molecule `Cn1c(=O)n([C@H]2CCCN(C(=O)Nc3ccc4c(c3)OCCO4)C2)c2ncccc21` registered an RP-LC retention time of 684 s.

Turning to `COC(=O)c1ccccc1Nc1c(-c2ccccc2)nc2cnccn12`, the RP-LC retention time was 962 s.

`CC(NC(=O)Cc1ccccc1F)C(=O)Nc1nc2ccccc2[nH]1` (centres undefined) had an RP-LC retention time of 638 s.

The molecule `CCOC(=O)CCC(=O)N1CCC(Oc2nc3c(C)ccc(C)c3s2)CC1` came in with an RP-LC retention time of 1100 s.

`O=S(=O)(c1cc(-c2nnc(C3CC3)o2)co1)N1CCCCC1` showed an RP-LC retention time of 839 s.

The molecule `O=C(Nc1ccc2c(c1)OCCO2)c1cn(-c2cc(N3CCCC3)ncn2)cn1` showed an RP-LC retention time of 795 s.

Regarding `Cc1cc(CS(=O)(=O)c2ccccc2)cc(OCc2ccc(CN3CCC[C@@H]3CO)cc2)c1`, the RP-LC retention time stood at 788 s.

Regarding `O=C(NCc1ccc(F)cc1F)C1CCN(c2cnc(N3CCCC3)nc2)CC1`, the RP-LC retention time stood at 668 s.

In turn, `CCCc1noc(-c2ccnc(-n3ncc(C(=O)NCC)c3C)c2)n1` showed an RP-LC retention time of 828 s.

`COc1ccc(NC(=O)Cn2c(C(C)C)nc3c(c2=O)CCN(Cc2ccccc2)C3)c(OC)c1` showed an RP-LC retention time of 703 s.

Take `O=C(NCCc1ccccc1)N1CCN(CCn2c(-c3ccncc3)nc3cccnc32)CC1`: the RP-LC retention time is 593 s.

Turning to `Cc1noc(C2CCCCN2Cc2cc(=O)n3ccccc3n2)n1` (centres undefined), the RP-LC retention time turned out to be 608 s.

On to `Cc1ccc(CN2C[C@]34C=C[C@H](O3)[C@@H](C(=O)NCc3ccccc3)[C@H]4C2=O)cc1`, for which the RP-LC retention time was 822 s.

Turning to `NC(=O)c1cccc2ncc(-c3ccc(Cl)cc3)nc12`, the RP-LC retention time is 831 s.

Consider `CN(C)C(=O)c1csc(S(=O)(=O)N2CCC(C(=O)NCc3ccc(F)cc3)CC2)c1`, for which the RP-LC retention time came out at 725 s.

Molecule `CCOC(=O)c1cnn(-c2ccc(C(=O)NC(C)C)cc2)c1N` yielded an RP-LC retention time of 823 s.

For `Cc1ccc(CN2CC(n3c(C)cnc3-c3ccccc3)C2)s1`, the RP-LC retention time was 555 s.

The molecule `c1ccc(-c2nc(CC3CCCNC3)no2)cc1` (centres undefined) returned an RP-LC retention time of 609 s.

For the molecule `Cc1ccc(NC(=O)N2CCC(n3cnc4cccnc43)CC2)cc1F`, the RP-LC retention time came out at 682 s.

In the case of `COCc1nc2cccnc2n1C1CCN(C(=O)Nc2ccc(Br)cc2F)CC1`, the RP-LC retention time was found to be 746 s.

Molecule `Clc1ccccc1-c1noc(Cc2nc(-c3ccccc3)cs2)n1` showed an RP-LC retention time of 1180 s.

Turning to `Cc1ccc(Nc2c(-c3ccc(N4CCOCC4)cc3)nc3ncccn23)cc1C`, the RP-LC retention time is 716 s.

`Cn1c(=O)c(-c2ccc(C(=O)NC3CCCCC3)cc2)nc2cccnc21` returned an RP-LC retention time of 882 s.

Take `COCCC(=O)Nc1ccc2c(c1)Sc1ncccc1C(=O)N2C`: the RP-LC retention time was found to be 612 s.

The molecule `COC(=O)C(C)NC(=O)NCc1cccn1Cc1ccc(F)cc1` (centres undefined) showed an RP-LC retention time of 814 s.

Regarding `Cc1ccc2nc(N3CCN(c4ccccc4)CC3)c(-c3noc(C)n3)cc2c1`, the RP-LC retention time turned out to be 699 s.

Take `c1ccc(CNc2nc(-c3ccccc3)no2)cc1`: the RP-LC retention time came out at 975 s.

On to `CCc1ccc(-c2nc(NC(=O)c3cc(C)on3)sc2C)cc1`, for which the RP-LC retention time turned out to be 1160 s.

Molecule `Cc1ccc(NC(=O)C2CCN(S(=O)(=O)c3ccc4c(c3)sc(=O)n4C(C)C)CC2)cc1` registered an RP-LC retention time of 942 s.

Molecule `CCOc1ccc(NC(=O)c2cc3oc(C)cc3n2Cc2ccc(C)cc2)cc1` showed an RP-LC retention time of 1210 s.

As to `O=C([C@@H]1C[C@H](Oc2ccccc2)CN1C(=O)c1n[nH]c2ccccc12)N1CCCC1`, the RP-LC retention time was found to be 802 s.

Take `CCN(CC)C(=O)Cn1cc(C(=O)C(=O)N2CCc3ccccc3C2)c2ccccc21`: the RP-LC retention time is 644 s.

Turning to `CCc1ccc(C2CC(=O)Nc3c(S(=O)(=O)c4ccccc4)csc32)cc1` (centres undefined), the RP-LC retention time stood at 1060 s.

`O=C1COc2ccccc2N1Cc1nc(-c2ccc(F)c(Cl)c2)no1`: the RP-LC retention time is 1090 s.

The molecule `CC(C)=C1SC(N2CCN(c3cccc(C(F)(F)F)c3)CC2)=NC1=O` returned an RP-LC retention time of 922 s.

On to `CCC(CC)C(=O)N1CCc2c(c(C(=O)N3CCCC(C(=O)Nc4ccccc4)C3)nn2C)C1` (centres undefined), for which the RP-LC retention time worked out at 761 s.

With `Cc1nc(-c2ccc(-c3noc(COc4ccc(Cl)cc4)n3)cc2)cs1`, the RP-LC retention time was found to be 1280 s.

`COc1ccc(C2CC(=O)N(c3ccc(F)c(Cl)c3)C(=O)C2)cc1` displayed an RP-LC retention time of 980 s.

In turn, `Cc1cc(C)cc(NC(=O)C2CCCN(S(=O)(=O)c3cc(-c4noc(C)n4)cs3)C2)c1` (centres undefined) showed an RP-LC retention time of 1060 s.

Turning to `COCCCNCc1ccc(-c2ccc(C(C)O)cc2)o1` (centres undefined), the RP-LC retention time turned out to be 600 s.

Molecule `COc1ccccc1-c1noc(Cn2c(=O)n(Cc3ccc(C)cc3)c(=O)c3sccc32)n1` gave an RP-LC retention time of 1100 s.

Regarding `CCCN(CCC)c1nc(-c2ccc(OC)cc2)nc2ccccc12`, the RP-LC retention time came to 896 s.

The molecule `CCn1cc(-c2nc(C(=O)Nc3ccc(C)cc3)cs2)c2cccnc21` gave an RP-LC retention time of 1160 s.

With `CC(CCc1ccccc1)NC(=O)c1cc2n(n1)CC(C)(C(=O)NC1CCCC1)N(C)C2=O` (centres undefined), the RP-LC retention time was found to be 844 s.

In turn, `CN(C)S(=O)(=O)N1CCC(c2nnc(C(F)(F)F)o2)CC1` displayed an RP-LC retention time of 758 s.

In turn, `COc1cc(OC)c(NC(=O)N2CCCC(C)(C(=O)NCc3ccc(F)cc3)C2)cc1Cl` (centres undefined) registered an RP-LC retention time of 916 s.

Regarding `O=c1c2cc3c(cc2nc(SCc2nc(-c4ccccc4)no2)n1-c1ccc(F)cc1)OCO3`, the RP-LC retention time came out at 1140 s.

In the case of `O=C(Cc1ccc(Br)cc1)Nc1cc(-c2ccsc2)no1`, the RP-LC retention time was 983 s.

`CCc1nc2cc(N3CCCC(C(=O)O)C3)cnc2nc1CC` (centres undefined) displayed an RP-LC retention time of 693 s.

For the molecule `Cc1ccc(-c2noc(C3CCCN3C(=O)C3CC(=O)N(c4ccc(C)cc4)C3)n2)cc1` (centres undefined), the RP-LC retention time amounted to 989 s.

Molecule `COC(=O)c1ccccc1S(=O)(=O)N1CCc2c(c(-c3nnc(-c4ccccc4F)o3)nn2C)C1` displayed an RP-LC retention time of 873 s.

In the case of `COC(=O)C1=C(C)N(C2CCCC2)C(=O)C1(NC(=O)CCc1ccccc1)C(F)(F)F` (centres undefined), the RP-LC retention time turned out to be 1080 s.

For `O=C(Cc1ccc(Cl)cc1)N1CCN(c2nc(CN3CCOCC3)cs2)CC1`, the RP-LC retention time was determined as 642 s.

The molecule `CCn1cc(S(=O)(=O)N2CCCn3nc(-c4ccc(OC)cc4)cc3C2)cn1` gave an RP-LC retention time of 805 s.

In turn, `C=CCNC(=O)c1ccc2nc(C)c(C)nc2c1` showed an RP-LC retention time of 626 s.

With `O=C(c1ccc(Cl)cc1)N1CCc2sc(C(=O)N3CCCC3)cc2C1`, the RP-LC retention time came out at 792 s.

With `CC(=O)Nc1ccc(NC(=O)c2cc3sc(C)c(CN4CCCCC4)c3[nH]2)cc1`, the RP-LC retention time worked out at 609 s.

In the case of `CCOc1ccc(C(=O)n2nc(C)c(S(=O)(=O)N3CCCCC3)c2C)cc1`, the RP-LC retention time was determined as 997 s.

`O=C(NC1CCN(c2cc(-c3cccs3)[nH]n2)C1)c1cc(F)ccc1Cl` (centres undefined) showed an RP-LC retention time of 797 s.

Molecule `CC(=O)Oc1cc(-c2cccc(C(F)(F)F)c2)c2oc(=O)sc2c1` registered an RP-LC retention time of 1030 s.

`COc1ccc(C2(C(=O)N3CCCC(Cn4cnc5cccnc54)C3)CC2)cc1` (centres undefined) had an RP-LC retention time of 656 s.

On to `CCn1cc(CC(=O)NCCOC)c2cccnc21`, for which the RP-LC retention time came out at 576 s.
